Data set [1] in a line: In vivo rhesus monkey test, plasma level after topical application. The conditions noted are these: for concentration at 3 h / concentration at 5 h / concentration at 7 h: topical. As for the experimental part:
If desired, an in vivo rhesus monkey test as described below may also be used to determine the effect of the PAEC combinations of the present invention.
Male rhesus monkeys weighing 10-14 Kg each can be used as the subject. An appropriate area of the monkey's chest is shaved 24 hours before drug application.
Drug formulations comprising the PAEC are applied to a certain area of the chest. The monkey is restrained in a chair to prevent it from touching its chest.
Blood samples are taken at appropriate intervals after the application. The heparinized blood is centrifuged, and the plasma removed and stored at -20° C. until analyzed.
In the following Examples 15 and 16, the in vivo monkey regimen earlier described was used to determine the effect of the PAEC combinations of the present invention, the regimen being modified as follows:
Male rhesus monkeys weighting 8 to 13 Kg wee used as the subject and an appropriate area of the monkey's upper back was shaved 24 hours before drug application;
the drug formulations were applied to 49 cm^2 of the upper back of the monkey; and
plasma samples taken at appropriate intervals were analyzed by conventional HPLC.
1 ml of 25% 1-dodecanol and 75% MP containing 200 mg of propanolol was impregnated into a polyester non-woven cloth (49 cm^2; 230 mg) and applied to the upper back area of the monkey.
The application site was occluded with Saran® film.
The procedure of Example 15 was followed except for using Indomethacin, a NSAID, in place of propranolol.

The text on data set [2]:
Rat full thickness skins were used in the diffusion cell method following the method of Michaels, AlChE Journal, 21 [5], 985-996, 1975. The rat skin was mounted in the diffusion cell in a vertical position between the upstream and the downstream compartments; the exposed area of the skin approximated 4.15 cm^2.
The skin was excised from the shaved abdominal site of male albino rats weighing 250~300 g, and washed with normal saline solution after the subcutaneous fat was carefully removed with scissors.
The active agent/PAEC solution of known concentration was added to the upper compartment of the cell, which was exposed to the epithelial side of the skin and a normal saline solution was placed in the lower compartment.
The penetration rate was studied in a thermostated bath at 30° C.
As an alternative, the finite dose technique of Franz, Curr. Probl. Dermatol., Vol. 7, p. 58~68 (Karger, Basel, 1978) can also be followed where the rat skin is mounted horizontally in a diffusion cell apparatus and the exposed area of the skin approximates 0.7 cm^2.
The active agent/PAEC solution of known concentration was added to the upstream compartment to which the epithelial side of the skin was exposed, and a normal saline solution was added to the downstream compartment.
Liquid compositions are prepared by firstly mixing Component A with Component B and then blending the active agent in the mixture. In the case that Component B is a solid at ambient temperature or will not homogenously mix with Component A, 20 wt.% of ethylene glycol monobutyl ether based on the weight of Components A and B can be used as an agent for assisting dissolution.
The flux of the active agent is given in terms of μg/cm^2 /8 hours. Twenty-five volume percent Component A with respect to Component A plus Component B volume was used in the composition along with 2.5 weight percent of the active agent. For purposes of comparison, in certain instances the results for solvents alone and adjuvants alone are given.
A propranolol system was formulated as follows: […] of propranolol was dissolved in 1 ml of 25 volume % dodecanol in N-methyl-2-pyrrolidone (based on total volume) and in 1 ml of ethyl alcohol as a comparison study.
In the following Example 8, in vitro transdermal penetration was again analyzed using rat full thickness skins following the method of Michaels, AIChE Journal, 21, [53], pp. 985-996 (1975), according to the procedure earlier described. The sample volume was 1 ml unless otherwise indicated and flux of the active agent is given in μg/cm^2 /8 hours. All percents are volume percents based on the total volume of the system unless otherwise indicated.

For data set [3], the system named is rhesus monkey. Description: Pharmacological (behavioral) effect in animal model after percutaneous administration. The class given is in vivo. The conditions noted are these: blood level approximately 100 ng/ml plasma.

Structures can show the parent of a compound that is named as a salt. Where two headings read alike, the source gives them in different places.

Regarding `CC(C)NCC(O)COc1cccc2ccccc12` (stereo not drawn) [Propranolol], the “Plasma Level” value in data set [1] (1 hr, 200 mg in 1 ml of 25% 1-dodecanol and 75% MP, 49 cm^2 upper back, occluded) stood at 0 ng/ml Plasma. Moreover, the concentration at 3 h in data set [1] (rhesus monkey, plasma, 3 hr, 200 mg in 1 ml of 25% 1-dodecanol and 75% MP, 49 cm^2 upper back, occluded) is 55 ng/mL. For the same molecule, the concentration at 5 h in data set [1] (rhesus monkey, plasma, 5 hr, 200 mg in 1 ml of 25% 1-dodecanol and 75% MP, 49 cm^2 upper back, occluded) was 85 ng/mL. Further, in data set [1] (rhesus monkey, plasma, 7 hr, 200 mg in 1 ml of 25% 1-dodecanol and 75% MP, 49 cm^2 upper back, occluded), the concentration at 7 h is 80 ng/mL.
Turning to `COc1ccc2c(c1)c(CC(=O)O)c(C)n2C(=O)c1ccc(Cl)cc1` [Indomethacin, 1-(p-chlorobenzoyl)-5-methoxy-2-methylindole-3-acetic acid], in data set [1] (rhesus monkey, in vivo, 60 min), the “Plasma Level” value was found to be 0 ng/ml Plasma. For the same molecule, the concentration at 3 h in data set [1] (rhesus monkey, in vivo) stood at 270 ng/mL. Also, the concentration at 5 h in data set [1] (rhesus monkey, in vivo) is 495 ng/mL. For the same molecule, the concentration at 7 h in data set [1] (rhesus monkey, in vivo) is 336 ng/mL. In addition, the “flux (Indomethacin)” value in data set [2] ((a) 25 mg + 1 ml of 25% linalool and 75% MP) turned out to be 98 μg/cm^2 /8 hours; in data set [2] ((b) 25 mg + 1 ml of 25% 1-dodecanol and 75% MP), 236 μg/cm^2 /8 hours; in data set [2] ((c) 25 mg + 1 ml of 25% oleyl alcohol and 75% MP), 236 μg/cm^2 /8 hours.
In turn, `CCN(CC)CCNC(=O)c1cc(Cl)c(N)cc1OC` [Metoclopramide (free base)] showed a Flux in data set [2] of 2694 μg/cm^2 /8 hrs.
For the molecule `CC(C)Cc1ccc(C(C)C(=O)O)cc1` (stereo not drawn) [Ibuprofen, p-isobutylhydratropic acid<2',4'-isobutylphenyl propionic acid], the “flux (Ibuprofen)” value in data set [2] ((a) 25 mg + 1 ml of 25% 1-dodecanol and 75% N-methyl pyrrolidone) stood at 307 μg/cm^2 /8 hours; in data set [2] ((b) 25 mg + 1 ml of 25% 1-dodecanol in 75% N-methyl piperidone), 266 μg/cm^2 /8 hours; in data set [2] ((c) 25 mg + 1 ml of 25% 1-dodecanol in 75% N-methyl caprolactum) it was 148 μg/cm^2 /8 hours.
On to `CN1C(=O)CN=C(c2ccccc2)c2cc(Cl)ccc21` [Diazepam, 7-Chloro-1,3-dihydro-1-methyl-5-phenyl-2H-1,4-benzodiazepine-2-one], for which, in data set [3], the “pharmacological (behavioral) signs of therapeutic effectiveness” value is on record as “produces pharmacological (behavioral) signs of therapeutic effectiveness”.
Take `COC(=O)C1=C(C)NC(C)=C(C(=O)OC)C1c1ccccc1[N+](=O)[O-]` [Nifedipine, 1,4-dihydro-2,6-dimethyl-4-(2-nitrophenyl)-3,5-pyridine dicarboxylic acid dimethyl ester]: the “flux (Nifedipine)” value in data set [2] ((a) 25 mg + 1 ml of 25% 1-dodecanol and 75% MP) turned out to be 480 μg/cm^2 /8 hours; in data set [2] ((b) 25 mg + 1 ml of 25% oleyl alcohol and 75% MP), 394 μg/cm^2 /8 hours; in data set [2] ((c) 25 mg + 1 ml of 25% 2-octyl-1-dodecanol and 75% MP), 246 μg/cm^2 /8 hours; in data set [2] ((d) control: 25 mg + 1 ml of MP) it was 30 μg/cm^2 /8 hours.
Molecule `CCN(CC)CCNC(=O)c1cc(Cl)c(N)cc1OC` [Metoclopramide HCl] came in with a Flux in data set [2] of 3280 μg/cm^2 /8 hrs.

The values above are taken from patent US4752612A, “Method and percutaneously administering physiologically active agents using an alcohol adjuvant and a solvent” (Nitto Electrical Industrial Co., Ltd., priority 1986, dated 1988).
